Source: patent US7524853B2 (Solvay Pharmaceuticals B.V., priority 2003, dated 2009)

Experiments:
Type in all cases: cell-based
[1] = target: T1, 17β-hydroxysteroid dehydrogenase type 1 (17β-HSD type 1) (Homo sapiens, UniProt P14061); test: Inhibition of 17β-HSD type 1 in MCF-7 cells stably expressing the isoenzyme (tritium labeled estrone conversion, HPLC); settings: MCF-7 cells expressing 17β-HSD type 1, 2 nM tritium labeled estrone; for inhibition at 1 µM / inhibition at 10 µM: MCF7; for inhibition at 1 µM / % Inhibition HSD1 1 μM: 1 μM test compound; for inhibition at 1 µM: read-out: % Inhibition HSD1 1 μM; for inhibition at 10 µM / % Inhibition HSD1 10 μM: 10 μM test compound; for inhibition at 10 µM: read-out: % Inhibition HSD1 10 μM
T1 construct: expressed in transfected cells; host or cells: MCF-7
T1 sequence (P14061 1-328): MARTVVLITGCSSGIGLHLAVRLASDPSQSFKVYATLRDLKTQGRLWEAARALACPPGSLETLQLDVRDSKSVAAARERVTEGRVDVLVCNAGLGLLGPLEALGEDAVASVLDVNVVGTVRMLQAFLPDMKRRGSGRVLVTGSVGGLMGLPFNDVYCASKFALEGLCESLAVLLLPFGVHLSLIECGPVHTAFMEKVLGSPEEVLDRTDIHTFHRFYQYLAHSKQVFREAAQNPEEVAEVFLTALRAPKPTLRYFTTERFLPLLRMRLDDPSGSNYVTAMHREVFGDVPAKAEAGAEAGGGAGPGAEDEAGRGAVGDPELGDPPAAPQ
In short: (§1)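 Percent inhibition derived by comparing substrate conversion with versus without compound, quantified by HPLC–radioflow detection after TCA stop. Cells were stably transfected MCF-7 expressing type 1, 2 or 3 enzyme, given 2 nM labeled estrone, estradiol or androstenedione respectively; compounds tested at two concentrations.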

[2] = target: T2, 17β-hydroxysteroid dehydrogenase type 2 (17β-HSD type 2) (Homo sapiens, UniProt P37059); test: Inhibition of 17β-HSD type 2 in MCF-7 cells stably expressing the isoenzyme (tritium labeled estradiol conversion, HPLC); settings: MCF-7 cells expressing 17β-HSD type 2, 2 nM tritium labeled estradiol; for inhibition at 1 µM / inhibition at 10 µM: MCF7; for inhibition at 1 µM / % Inhibition HSD2 1 μM: 1 μM test compound; for inhibition at 1 µM: read-out: % Inhibition HSD2 1 μM; for inhibition at 10 µM / % Inhibition HSD2 10 μM: 10 μM test compound; for inhibition at 10 µM: read-out: % Inhibition HSD2 10 μM
T2 construct: expressed in transfected cells; host or cells: MCF-7
T2 sequence (P37059 1-387): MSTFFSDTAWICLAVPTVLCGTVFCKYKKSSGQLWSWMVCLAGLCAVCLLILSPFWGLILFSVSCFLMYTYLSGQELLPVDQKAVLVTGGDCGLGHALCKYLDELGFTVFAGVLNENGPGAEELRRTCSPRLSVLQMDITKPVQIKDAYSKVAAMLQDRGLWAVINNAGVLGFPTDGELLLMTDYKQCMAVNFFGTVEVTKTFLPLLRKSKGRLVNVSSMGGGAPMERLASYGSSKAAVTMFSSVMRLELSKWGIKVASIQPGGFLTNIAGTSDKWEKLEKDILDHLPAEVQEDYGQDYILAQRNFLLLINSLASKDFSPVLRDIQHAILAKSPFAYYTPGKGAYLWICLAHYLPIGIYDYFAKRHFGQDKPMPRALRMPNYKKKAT
In short: as §1

[3] = target: T3, 17β-hydroxysteroid dehydrogenase type 3 (17β-HSD type 3) (Homo sapiens, UniProt P37058); test: Inhibition of 17β-HSD type 3 in MCF-7 cells stably expressing the isoenzyme (tritium labeled androstenedione conversion, HPLC); settings: MCF-7 cells expressing 17β-HSD type 3, 2 nM tritium labeled androstenedione; for inhibition at 1 µM / inhibition at 10 µM: MCF7; for inhibition at 1 µM / % Inhibition HSD3 1 μM: 1 μM test compound; for inhibition at 1 µM: read-out: % Inhibition HSD3 1 μM; for inhibition at 10 µM / % Inhibition HSD3 10 μM: 10 μM test compound; for inhibition at 10 µM: read-out: % Inhibition HSD3 10 μM
T3 construct: expressed in transfected cells; host or cells: MCF-7
T3 sequence (P37058 1-310): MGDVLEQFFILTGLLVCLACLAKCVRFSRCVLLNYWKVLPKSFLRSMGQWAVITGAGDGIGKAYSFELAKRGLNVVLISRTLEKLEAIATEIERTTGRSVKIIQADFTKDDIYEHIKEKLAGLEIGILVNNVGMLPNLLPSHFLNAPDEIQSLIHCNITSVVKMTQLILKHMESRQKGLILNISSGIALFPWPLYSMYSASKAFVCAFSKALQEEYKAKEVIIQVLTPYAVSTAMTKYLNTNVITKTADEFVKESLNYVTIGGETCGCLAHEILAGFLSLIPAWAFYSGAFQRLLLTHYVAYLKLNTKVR
In short: as §1

Row | SMILES | inhibition at 1 µM [1] [%] | inhibition at 10 µM [1] [%] | inhibition at 1 µM [2] [%] | inhibition at 10 µM [2] [%] | inhibition at 1 µM [3] [%] | inhibition at 10 µM [3] [%] | % Inhibition HSD1 1 μM [1] [%] | % Inhibition HSD1 10 μM [1] [%] | % Inhibition HSD2 1 μM [2] [%] | % Inhibition HSD2 10 μM [2] [%] | % Inhibition HSD3 1 μM [3] [%] | % Inhibition HSD3 10 μM [3] [%]
1 | CCOC1=C(C=O)CCc2c1sc1nc(-c3cc(OC)c(OC)c(OC)c3)n(Cc3ccccc3)c(=O)c21 [No. 7, 3-Benzyl-8-ethoxy-4-oxo-2-(3,4,5-trimethoxyphenyl)-3,4,5,6-tetrahydro-benzo[4,5]thieno[2,3-d]pyrimidine-7-carbaldehyde] | 12.5 | 38.4 | 8.2 | 27 | -17.6 | 5.7 |  |  |  |  |  | 
2 | CCCc1nc2sc3c(OC(C)=O)cccc3c2c(=O)n1Cc1ccc(Br)o1 [No. 106, Acetic acid 3-(5-bromofuran-2-ylmethyl)-4-oxo-2-propyl-3,4-dihydro-benzo[4,5]thieno[2,3-d]pyrimidin-8-yl ester] | 28.8 | 72.5 | 50 | 86.2 | 8.1 | 71.1 |  |  |  |  |  | 
3 | COc1cc(-c2nc3sc4c(OC(C)=O)cccc4c3c(=O)n2Cc2ccccc2)c(Br)c(OC)c1OC [No. 50, Acetic acid 3-benzyl-2-(2-bromo-3,4,5-trimethoxyphenyl)-4-oxo-3,4-dihydro-benzo[4,5]thieno[2,3-d]pyrimidin-8-yl ester] | 34.4 | 65.8 | 32.4 | 39 | 32.9 | 75.8 |  |  |  |  |  | 
4 | O=c1c2c(nc(-c3ccc(Br)s3)n1Cc1ccccc1)sc1c(O)cccc12 [No. 68, 3-Benzyl-2-(5-bromothiophen-2-yl)-8-hydroxy-3H-benzo[4,5]thieno[2,3-d]pyrimidin-4-one] | 9 | 21.5 | 15.5 | 49 | 7.3 | 40.7 |  |  |  |  |  | 
5 | COc1cc(-c2nc3sc4c(O)cccc4c3c(=O)n2Cc2ccccc2)cc(OC)c1OC [No. 53, 3-Benzyl-8-hydroxy-2-(3,4,5-trimethoxyphenyl)-3H-benzo[4,5]thieno[2,3-d]pyrimidin-4-one] | 52.2 | 71 | 22.4 | 60 | 32.2 | 52.7 |  |  |  |  |  | 
6 | COc1cccc(-c2nc3sc4c(c3c(=O)n2Cc2ccccc2)CCCC4)c1 [No. 78, 3-Benzyl-2-(m-methoxyphenyl)-5,6,7,8-tetrahydro-3H-benzo[4,5]thieno[2,3-d]pyrimidin-4-one] | 7.1 | 28.5 | 9.1 | 7.8 | -4.3 | 27.6 |  |  |  |  |  | 
7 | COc1cc(-c2nc3sc4c(c3c(=O)n2Cc2ccccc2)CCC(C=O)=C4Sc2ccccc2)cc(OC)c1OC [No. 8, 3-Benzyl-4-oxo-8-phenylsulfanyl-2-(3,4,5-trimethoxyphenyl)-3,4,5,6-tetrahydro-benzo[4,5]thieno[2,3-d]pyrimidine-7-carbaldehyde] | 30.8 | 27.4 | 4.9 | 17.1 | 2.5 | 4.8 |  |  |  |  |  | 
8 | O=Cc1nc2c(c(=O)n1Cc1ccccc1)C1=C(CCCC1)S2(=O)=O [No. 33, 3-Benzyl-4,9,9-trioxo4,5,6,7,8,9-hexahydro-3H-9lambda*6*-benzo[4,5]thieno[2,3-d]pyrimidine-2-carbaldehyde] | 17.6 | 67.3 | 16.3 | 18.7 | 1.9 | 0.1 |  |  |  |  |  | 
9 | COc1cc(-c2nc3sc4c(c3c(=O)n2Cc2ccco2)CCCC4)cc(OC)c1OC [No. 119, 3-Furan-2-ylmethyl-2-(3,4,5-trimethoxylphenyl)-5,6,7,8-tetrahydro-3H-benzo[4,5]thieno[2,3-d]pyrimidin-4-one] | 9.6 | 27.9 | 25.1 | 30.1 | 2.3 | 19.1 |  |  |  |  |  | 
10 | O=c1c2c3c(sc2nc(-c2cc(O)c(O)c(O)c2)n1-c1ccccc1)CCCC3 [No. 43, 3-Phenyl-2-(3,4,5-trihydroxyphenyl)-5,6,7,8-tetrahydro-3H-benzo[4,5]thieno[2,3-d]pyrimidin-4-one] | 12 | 23.8 | 18 | 15 | -2.5 | -0.9 |  |  |  |  |  | 
11 | CCCc1nc2sc3c(O)cccc3c2c(=O)n1Cc1cc(Br)ccc1OC [No. 98] | 28.2 | 69.1 | 46.6 | 82.8 | 16.6 | 63.3 |  |  |  |  |  | 

The next lines start with the values.

Row | inhibition at 1 µM [1] [%] | inhibition at 10 µM [1] [%] | inhibition at 1 µM [2] [%] | inhibition at 10 µM [2] [%] | inhibition at 1 µM [3] [%] | inhibition at 10 µM [3] [%] | % Inhibition HSD1 1 μM [1] [%] | % Inhibition HSD1 10 μM [1] [%] | % Inhibition HSD2 1 μM [2] [%] | % Inhibition HSD2 10 μM [2] [%] | % Inhibition HSD3 1 μM [3] [%] | % Inhibition HSD3 10 μM [3] [%] | SMILES
12 | 16 | 7.9 | 9.9 | 11.6 | 17.2 | 21.6 |  |  |  |  |  |  | CCCCn1c(-c2cccs2)nc2sc3c(c2c1=O)CCCC3=O [No. 134, 3-Butyl-2-thiophen-2-yl-6,7-dihydro-3H,5H-benzo[4,5]thieno[2,3-d]pyrimidine-4,8-dione]
13 |  |  |  |  |  |  | 14.4 | 35.4 | 16.3 | 33.9 | 22.9 | 76.1 | O=c1c2c(nc(CCc3ccccc3)n1Cc1ccccc1)sc1c(O)cccc12 [No. 659]
14 | 18.2 | 58.4 | 6.8 | 24.3 | 18.7 | 37.7 |  |  |  |  |  |  | COc1cc(-c2nc3sc4c(O)cccc4c3c(=O)n2CC2CCCO2)c(Br)c(OC)c1OC (stereo not drawn) [No. 133, 2-(2-Bromo-3,4,5-trimethoxyphenyl)-8-hydroxy-3-(tetrahydrofuran-2-ylmethyl)-3H-benzo[4,5]thieno[2,3-d]pyrimidin-4-one]
15 | 23.5 | 33.7 | 13.6 | 31.1 | 12.7 | 19.3 |  |  |  |  |  |  | COc1cc(-c2nc3sc4c(c3c(=O)n2Cc2cccnc2)CCCC4)cc(OC)c1OC [No. 144]
16 | 13.9 | 49 | 15.4 | 26.2 | 9.4 | 56.2 |  |  |  |  |  |  | COc1cc(-c2nc3sc4c(O)cccc4c3c(=O)n2Cc2ccc(Br)o2)cc(OC)c1OC [No. 122, 3-(5-Bromofuran-2-ylmethy1)-8-hydroxy-2-(3,4,5-trimethoxyphenyl)-3H-benzo[4,5]thieno[2,3-d]pyrimidin-4-one]
17 |  |  |  |  |  |  | 29.8 | 28.4 | 27.6 | 26.4 | 13.9 | 19.8 | CCCCC(CC)c1nc2sc3c(O)cccc3c2c(=O)n1CCc1cccs1 (stereo not drawn) [No. 644]
